From US20100143999A1, “PROCESS FOR FERMENTIVE PREPARATION OF ALCOHOLS AND RECOVERY OF PRODUCT” (E.I. DU PONT DE NEMOURS AND COMPANY, priority 2008, published 2010) come the findings set out here.

Data set [1] deals with Saccharomyces cerevisiae (W1362 20A). Description: Glucose Uptake Index of S. cerevisiae culture with 5% (v/v) ionic liquid. Particulars: YPD medium, 30° C., 16 hours after addition. In kind it is cell-based. How it is done:
After 24 hours the test tube was removed and stored at 4° C.

Data set [2] has the same test system. The experiment in a line: Scale-up fermentation (25 mL broth) with 5 volume percent ionic liquid, HPLC over five hours. In kind it is cell-based. Conditions: five hour time span, FIG. 2. The procedure:
Cultures were again prepared using the same growth conditions as described above except that the total broth volume was 25 mL. The selected ionic liquids were added to a container of each broth in an amount of 5 volume percent. In these experiments, small samples were withdrawn from the broth for HPLC analysis periodically over a five hour time span to get a better idea of the extent of metabolic activity after ionic liquid addition as well as to provide information on glucose consumption and product formation. […] The calculation of GUI was made as described above, and amount of ethanol produced was taken directly from the HPLC data.

The nature of data set [3]: Extraction of ethanol from an aqueous solution by ionic liquid. Format: physicochemical. Conditions: 3 mL aqueous solution about 31 g/L ethanol, 150 microliters (5 vol %) ionic liquid, overnight equilibration.
Procedure: (§1) Ethanol and isobutanol concentration in the solution was measured using HPLC as described above following thorough mixing and overnight equilibration of the contents of the vial.
Data set [4] is described as follows: Extraction of isobutanol from an aqueous solution by ionic liquid. In kind it is physicochemical. Particulars: 3 mL aqueous solution about 31 g/L isobutanol, 150 microliters (5 vol %) ionic liquid, overnight equilibration.
Procedure: as §1

As for “1-butyl-3-methylimidazolium 1,1,2,3,3,3-hexafluoropropanesulfonate [Example 11]”, the “GUI of Example (Glucose Utilization Index in the presence of ionic liquid phase)” value in data set [1] is listed as 30.1; in data set [1] (listed as 14) it was 31.9.
Take “1-butyl-3-methylimidazolium 1,1,2-trifluoro-2-(perfluoroethoxy)ethanesulfonate [Example 4]”: the “GUI of Example (Glucose Utilization Index in the presence of ionic liquid phase)” value in data set [1] was determined as 22.0.
On the same count and under the same terms, the result for “1-butyl-3-methylimidazolium 1,1,2-trifluoro-2-(trifluoromethoxy)ethanesulfonate [Example 10]” reads 37.1; that for “1-butyl-3-methylimidazolium 2-(1,2,2,2-tetrafluoroethoxy)-1,1,2,2-tetrafluoroethanesulfonate [Example 13]”, 42.8.
As to “1-butyl-3-methylpyrrolidinium bis(trifluoromethylsulfonyl)imide [Example 15]”, in data set [2], the ethanol production result is “remained robust” and the glucose uptake result is recorded as “remained robust”.
With “1-ethyl-3-methylimidazolium bis(trifluoromethylsulfonyl)imide [Example 6]”, the “GUI of Example (Glucose Utilization Index in the presence of ionic liquid phase)” value in data set [1] came to 76.8. In data set [2], the ethanol production entry is reported as “remained robust” and the glucose uptake entry is on record as “remained robust”. For the same compound, in data set [3], the “Ethanol (concentration in the solution after extraction)” value turned out to be 670 mM. Also, the “Isobutanol (concentration in the solution after extraction)” value (shortened to “Isobutanol”) in data set [4] is recorded as 389 mM.
In the case of “1-hexyl-3-methylimidazolium bis(trifluoromethylsulfonyl)imide [Example 9]”, in data set [1], the “GUI of Example (Glucose Utilization Index in the presence of ionic liquid phase)” value is given as 89.5. Moreover, in data set [2], the ethanol production entry is recorded as “remained robust” and the glucose uptake result is reported as “remained robust”. In addition, the “Ethanol (concentration in the solution after extraction)” value in data set [3] is reported as 678 mM. The “Isobutanol” value in data set [4] is 388 mM.
“3-methyl-1-propylpyridinium bis(trifluoromethylsulfonyl)imide [Example 12]”: in data set [1], the “GUI of Example (Glucose Utilization Index in the presence of ionic liquid phase)” value is 97.1.
On to `CCCCCCn1cc[n+](C)c1.FC(F)(F)C(F)(F)[P-](F)(F)(F)(C(F)(F)C(F)(F)F)C(F)(F)C(F)(F)F` [Example 1, 1-hexyl-3-methylimidazolium tris(pentafluoroethyl)trifluorophosphate], for which the “GUI of Example (Glucose Utilization Index in the presence of ionic liquid phase)” value in data set [1] stood at 99.7. Further, in data set [2], the ethanol production result is listed as “remained robust” and the glucose uptake result is given as “remained robust”. Besides, in data set [3], the “Ethanol (concentration in the solution after extraction)” value is recorded as 680 mM. For the same compound, the “Isobutanol” value in data set [4] was found to be 404 mM.
For `CCCCn1cc[n+](C)c1.F[P-](F)(F)(F)(F)F` [Example 7, 1-butyl-3-methylimidazolium hexafluorophosphate], the “GUI of Example (Glucose Utilization Index in the presence of ionic liquid phase)” value in data set [1] is recorded as 48.2.
On the same count and under the same terms, the value for “tetradecyl(tri-n-hexyl)phosphonium 1,1,2-trifluoro-2-(perfluoroethoxy)ethanesulfonate [Example 2]” was 78.4.
